Legend:
[1] = tested on: ATL patients with a history of treatment with the anti-CCR4 antibody mogamulizumab; conditions: phase II trials; cited from earlier work
[2] = tested on: recurrent or refractory ATL patients; assay: multicenter open-label phase I trial of the clinical compound in non-Hodgkin's lymphoma patients; ATL patients analyzed; assay type: in vivo, human; design: key to Determination of effect on lesion site: Peripheral blood image / Best overall effect / Determination of effect on lesion site: Nodular lesion / Determination of effect on lesion site: Extranodal lesion: CR: Complete Remission; CRu: Uncertified Complete Remission; PR: Partial Remission; SD: Stable Disease; PD: Progressive Disease; NE: Not Evaluable
Experimental: Clinical trials which administer the clinical compound to patients with non-Hodgkin's lymphoma were carried out. ATL patients of the non-Hodgkin's lymphoma patients receiving the clinical compound were analyzed.
The clinical trial is a multicenter open-label phase I trial for the purpose of studying, e.g., safety, tolerability, pharmacokinetics and anti-tumor effect, by administering the clinical compound to patients with recurrent or refractory non-Hodgkin's lymphoma (no standard treatment is established or refractory or intolerant to a standard treatment) including ATL patients. […] In this manner, dose-limiting toxicity and recommended dose for the next phase are determined in the clinical trial.
The clinical compound was orally administered to individual test subjects once a day for consecutive days until unacceptable toxicity or disease progression was confirmed. […] The anti-tumor effect was observed principally, at intervals of 8 weeks, and evaluated based on “Definition, prognostic factors, treatment, and response criteria of adult T-cell leukemia-lymphoma: a proposal from an international consensus meeting” (J Clin Oncol. 2009; 27[3]: 453-9).
The dose of the first cohort was determined to be 150 mg/time/day based on the results of a nonclinical study. The dose of the next cohort was determined by comprehensively evaluating the dose recommended by the modified continual reassessment method (mCRM) based on information of the presence or absence of dose-limited toxicity and all safety data (including adverse event except dose limiting toxicity and abnormal laboratory test values), pharmacokinetics, biomarkers, and effectiveness data obtained up to the time point, and discussing with a sponsors, investigators and external experts.
The dosage amount of the clinical compound was in advance determined per cohort. As the clinical compound, two types of capsules different in dose were provided in combination. As the administration method, oral administration once a day was carried out for consecutive days.
The therapeutic effect on ATL was determined based on “Definition, prognostic factors, treatment, and response criteria of adult T-cell leukemia-lymphoma: a proposal from an international consensus meeting” (J Clin Oncol. 2009; 27[3]: 453-9). Before initiation of the clinical trial, necessary examinations, which were selected from CT scan, bone marrow examination, endoscopic inspection and blood test in accordance with the disease state of the test subject, were carried out to determine a target lesion. A change in the lesion was assessed principally at intervals of 8 weeks.

[3] = ATL patient No. 1, 150 mg oral once a day, treatment history: mogamulizumab present, lenalidomide present
[4] = ATL patient No. 2, 150 mg oral once a day, treatment history: mogamulizumab present, no lenalidomide
[5] = ATL patient No. 9, 200 mg oral once a day, treatment history: no mogamulizumab, lenalidomide present

SMILES	response rate [1]	median value of PFS ([2]; 9 recurrent or refractory ATL patients) [weeks]	Best overall effect [2, 3]	Determination of effect on lesion site: Extranodal lesion [2, 3]	Determination of effect on lesion site: Nodular lesion [2, 3]	Best overall effect [2, 4]	Determination of effect on lesion site: Extranodal lesion [2, 4]	Determination of effect on lesion site: Nodular lesion [2, 4]	Best overall effect [2, 5]	Determination of effect on lesion site: Peripheral blood image [2, 5]	patients evaluated as SD ([2]; of 6 patients with a history of treatment with mogamulizumab) [patients]	responders ([2]; of 6 patients with a history of treatment with mogamulizumab (CRu: 1 patient, PR: 2 patients)) [patients]	response rate ([2]; recurrent or refractory ATL patients evaluable for effectiveness, 4 out of 9 patients [CRu: 1, PR: 3], 95%CI 13.7 to 78.8, intermediate data, oral once a day) [%]	disease control rate (percentage of patients exerting an effect of SD or more) ([2]; recurrent or refractory ATL patients, 7 out of 9 patients, intermediate data) [%]
Nc1cccc2c1CN(C1CCC(=O)NC1=O)C2=O (centres unmarked) [lenalidomide]	about 18%													
Cc1cc(C)c(CNC(=O)c2cc(Cl)c3c(c2C)O[C@@](C)([C@H]2CC[C@H](N(C)C)CC2)O3)c(=O)[nH]1.Cc1ccc(S(=O)(=O)O)cc1 [clinical compound, (2R)-7-chloro-2-[trans-4-(dimethylamino)cyclohexyl]-N-[(4,6-dimethyl-2-oxo-1,2-dihydropyridin-3-yl)methyl]-2,4-dimethyl-1,3-benzodioxol-5-carboxamide p-toluenesulfonate]		16.1	PD	PD	PD	PR	PR	Cru	PR	PR	2	3	44.4	77.8

— patent US20220280492A1, “THERAPEUTIC AGENT FOR CANCER HAVING RESISTANCE TO ANTI-CCR4 ANTIBODY” (DAIICHI SANKYO COMPANY, LIMITED, priority 2019, published 2022)
